“Also recorded” adds a separate entry of the source.
Tests used:
Aβ fibrils = target: T1, Aβ fibrils (Homo sapiens, UniProt P05067); conditions: cited from earlier work; for Binding and coating of Aβ fibrils (inhibition of IgG-Aβ fibril interactions): ELISA with monoclonal anti-Aβ IgG clone 6E10, Inbar et al.
T1 construct: the Aβ fibrils are grown from synthetic Aβ (1-42) peptides by incubating the peptides (74 μM) in ultrapure water

[1] = target: T2, Aβ peptide (1-42) ion channels (Homo sapiens, UniProt P05067); assay: Electrophysiological planar lipid bilayer assay for Aβ peptide ion channel activity (bilayer chambers, voltage clamp); format: biochemical; conditions: for Inhibition of Aβ pores / ion channel activity of Aβ: electrophysiological screening assay of FIGS. 3-5; for Inhibition of Aβ peptide ion channel formation (pore forming activity): 37 μM Aβ peptide, test compound in molar ratio 1:1, added at the same time as Aβ peptide, planar lipid bilayer; for Disruption of preformed Aβ ion channels: added after current activity was observed
T2 construct: purchased Innovagen, Lund, SE or Bachem Bioscience Inc., King of Prussia, Pa., USA
T2 sequence (P05067 672-713 limits assumed): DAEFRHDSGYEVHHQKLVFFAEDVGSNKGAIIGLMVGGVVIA
Description: Ion channel measurements. Screening assays can be performed using single channel recordings in “voltage clamp mode” using Ag/AgCl electrodes (Warner Instruments) in each compartment of the bilayer chambers. Data acquisition and storage can be carried out using custom software in combination with either an EPC-7 patch clamp amplifier from List Medical Electronic (set at a gain of 10 mV pA-1 and a filter cutoff frequency of 3 kHz) or a Geneclamp 500 amplifier from Axon Instruments (with a CV-5B 100GU headstage, set at a gain of 100 mV pA-1 and filter cutoff frequency of 1 kHz). In some embodiments, patch clamp amplifiers, for example, the EPC-7 amplifier can be used for most folded bilayers and the Geneclamp 500 amplifier for most painted bilayers. The data acquisition boards for both amplifiers were set to a sampling frequency of 15 kHz. Current traces can be further filtered using a digital Gaussian low-pass filter with a cutoff frequency of 30 Hz. In some embodiments, the current traces used to generate data that can be recorded at applied potentials 50 mV and filtered at 10 Hz.
Analysis of the single channel current traces can be made by computing histograms of the currents from the original current-time traces with ClampFit 9.2 software from Axon Instruments. From these histograms, the main current values can be extracted by fitting a Gaussian function to the peaks in the histograms. Single channel conductances can refer to the main conductance state (i.e. to the dominant peaks in the current histograms).
The lipid mixture can be made from POPE:POPG (Avanti Polar Lipids) at 25 mg/ml (1:1) in Heptane. The pretreatment lipid solution can be POPE:POPG 20 mg/mL in Hexane. 2. The bilayer is formed in classic bilayer cups and chamber (Warner Instruments). This 2-part system consists of a black Delrin chamber and a cup of Delrin. Cups and chambers are designed such that addition of equal volumes to the cup and chamber (cis and trans sides) results in a balanced solution height, minimizing any pressure gradients across the bilayer membrane.
The bilayer was formed over a 250-μm hole in a partition separating two Delrin compartments, the so called “painting technique.” First, droplets of pretreated lipid solution were placed on both sides of the hole, using 100 μL-Hamilton syringe. Once the droplet of hexane evaporates, both chambers (cis and trans) were symmetrically filled with 900 μL of buffer solution, 100 mM KH2PO4/K2HPO4 pH 7.4, at room temperature.
When the bilayer set-up was already in place with Ag/AgCl electrodes in Faraday cage (a bilayer workstation which provides critical shielding of electromagnetic interference from outside sources and isolate vibration) the lipid solution (POPE:POPG in Heptane) can be painted directly over the hole by using a thin paintbrush. Blowing air underneath the hole using a Pasteur pipette to thin out the bilayer can be used until the appropriate capacitance (80-120 pF) is achieved. A voltage of ±100 mV was applied for at least 10 minutes to test stability of lipid bilayer.
Aβ(1-42) (commercially available from Innovagen, Lund, SE or Bachem Bioscience Inc., King of Prussia, Pa., USA) is initially dissolved in deionized water at 1 mg/ml (221.5 μM) and stored at −20° C. The stock solution can be aliquotted to sufficient amount for each time use (90 μL). After the stable bilayer is constituted, the Aβ(1-42) solution can be added to the trans side of the chamber to obtain a final concentration of 37 μM. The solution is mixed well in the chamber under stirring for 5 minutes.
Congo Red (Sigma) is dissolved in de-ionized (DI) water to achieve a concentration of 2.5 mg/ml (3.58 mM as a stock solution). (−)Nicotine hemisulfate (Sigma, St. Louis, Mo., USA) was diluted to 1.89 mM in DI water. Tannic acid (Riedel-de Haën, Seelze, Germany) is diluted to 20 mM in DI water.

T1 sequence (P05067 672-713 limits assumed): as above

Molecule: Diaminoacridine [DAA]
- Binding and coating of Aβ fibrils (inhibition of IgG-Aβ fibril interactions) (Aβ fibrils): bind and coat Aβ fibrils

Molecule: O=S(=O)([O-])c1ccc(O)c2ccccc12.[Na+] [1-naphthol-4-sulfonate]
- Binding and coating of Aβ fibrils (inhibition of IgG-Aβ fibril interactions) (Aβ fibrils): do not interact with Aβ fibrils

Molecule: Cc1ccc2c(c1)sc(-c1ccc(N(C)C)cc1)[n+]2C.[Cl-] [ThT, Thioflavin T]
- Binding and coating of Aβ fibrils (inhibition of IgG-Aβ fibril interactions) (Aβ fibrils): bind and coat Aβ fibrils

Molecule: NCCc1ccc(O)c(O)c1 [dopamine]
- Inhibition of Aβ pores / ion channel activity of Aβ [1]: inhibit Aβ pores

Molecule: Nc1c(/N=N/c2ccc(-c3ccc(/N=N/c4cc(S(=O)(=O)O)c5ccccc5c4N)cc3)cc2)cc(S(=O)(=O)O)c2ccccc12 [Congo Red]
- Inhibition of Aβ pores / ion channel activity of Aβ [1]: inhibit Aβ pores
- Binding to aggregated Aβ fibrils (Aβ fibrils): bind strongly

Molecule: O=C(OC[C@H]1O[C@@H](OC(=O)c2cc(O)c(O)c(OC(=O)c3cc(O)c(O)c(O)c3)c2)[C@H](OC(=O)c2cc(O)c(O)c(OC(=O)c3cc(O)c(O)c(O)c3)c2)[C@@H](OC(=O)c2cc(O)c(O)c(OC(=O)c3cc(O)c(O)c(O)c3)c2)[C@@H]1OC(=O)c1cc(O)c(O)c(OC(=O)c2cc(O)c(O)c(O)c2)c1)c1cc(O)c(O)c(OC(=O)c2cc(O)c(O)c(O)c2)c1 [Tannic acid]
- Inhibition of Aβ peptide ion channel formation (pore forming activity) [1]: Inhibition of Aβ ion channel formation
- Inhibition of Aβ pores / ion channel activity of Aβ [1]: inhibit ion channel activity of Aβ
- Inhibition of Aβ pores / ion channel activity of Aβ ([1]; listed as tannic acid): inhibit Aβ pores
- Binding to aggregated Aβ fibrils (Aβ fibrils): bind strongly

Molecule: CN1CCC[C@H]1c1cccnc1 [nicotine, (−)Nicotine hemisulfate]
- Inhibition of Aβ peptide ion channel formation (pore forming activity) [1]: eliminated ion channel pore forming activity
- Amount of nicotine needed: disruption of preformed channels versus inhibition of de novo formed channels ([1]; comparison of preformed and de novo formed Aβ ion channels): required more nicotine than the inhibition de novo formed ion channels
- Inhibition of Aβ pores / ion channel activity of Aβ [1]: inhibit Aβ pores
- Concentration dependence of disruption of Aβ peptide ion channel activity ([1]; nicotine added after observing Aβ current activity, 1:1, 1:2, 1:3 and 1:4 molar ratio): concentration-dependent disruption of Aβ peptide ion channel activity
- Disruption of preformed Aβ ion channels ([1]; nicotine at 2-fold molar excess with respect to Aβ peptide (1-42)): disrupted preformed ion channels
- Disruption of preformed Aβ ion channels ([1]; nicotine at 4-fold molar excess (4:1) with respect to Aβ peptide (1-42)): disrupted preformed ion channels almost completely; also recorded: disrupted preformed Aβ peptide ion channel activity almost completely
- Time to almost complete disruption of preformed ion channels ([1]; nicotine at 4-fold molar excess with respect to Aβ peptide (1-42)): ≤ 10 min

— patent publication US20100178658A1, “SCREENING ASSAYS FOR INHIBITORS OF BETA AMYLOID PEPTIDE ION CHANNEL FORMATION” (The Regents of the University of Michigan, priority 2007, published 2010)
